± gives the expanded uncertainty stated by the source.

The conditions of this data set: Liquid, Ebulliometric method (Recirculating still).

As usually defined, the vapor or sublimation pressure is the pressure of vapour in equilibrium with the condensed phase. `COCC(C)O` (centres undefined) [1-methoxy-2-propanol]: the “vapor or sublimation pressure” value (393.15 K) came out at 101.3 ± 1.5 kPa.
For the compound `O` [water], for the setting “373.19 K”, the “vapor or sublimation pressure” value was determined as 101.3 ± 1.5 kPa.
`COCCO` [2-methoxyethan-1-ol]: the “vapor or sublimation pressure” value (397.67 K) was 101.3 ± 1.5 kPa.
`COC(C)CO` (centres undefined) [2-methoxy-1-propanol]: the “vapor or sublimation pressure” value (402.65 K) was determined as 101.3 ± 1.5 kPa.

For the origin of these results see the NIST ThermoML archive (doi:10.1021/acs.jced.6b00895).
